The structures appear in SMILES notation.

Test system in one data set: not given
Assay: not given
Conditions: not given
In general, melting point refers to the temperature, or range, at which the solid turns liquid. `CC1(C)CN(CCCOc2cc3c(Nc4ccc(F)c(Cl)c4)ncnc3cc2OC2CCC2)CC(=O)O1` [1(2), 4-[(3-Chloro-4-fluorophenyl)amino]-7-cyclobutyloxy-6-[3-(6,6-dimethyl-2-oxo-morpholin-4-yl)-propyloxy]-quinazoline] came in with a melting point of 212 to 214 °C. Regarding `COc1cc2ncnc(Nc3ccc(F)c(Cl)c3)c2cc1OCCN1CC(=O)O[C@@H](C)C1` [3(25), 4-[(3-Chloro-4-fluorophenyl)amino]-6-[2-((S)-6-methyl-2-oxo-morpholin-4-yl)-ethoxy]-7-methoxy-quinazoline], the melting point lay in the range of 212 to 213 °C.

Regarding `CN(CCCOc1cc2c(Nc3ccc(F)c(Cl)c3)ncnc2cc1OC1CCC1)C1COC(=O)C1` (centres unmarked) [Example 2(2), 4-[(3-Chloro-4-fluorophenyl)amino]-6-{3-[N-(2-oxo-tetrahydrofuran-4-yl)-N-methyl-amino]-propyloxy}-7-cyclobutyloxy-quinazoline], the melting point lay within 147.5 to 151 °C. As for `COc1cc2ncnc(Nc3cccc(Br)c3)c2cc1OCCN1CC(=O)O[C@H](C)C1` [Example 3(1), 4-[(3-Bromo-phenyl)amino]-6-[2-((R)-6-methyl-2-oxo-morpholin-4-yl)-ethoxy]-7-methoxy-quinazoline], the melting point was determined as 193 °C.

For `COc1cc2ncnc(Nc3ccc(F)c(Cl)c3)c2cc1OCCN1CC(=O)O[C@H](C)C1` [Example 3(2), 4-[(3-Chloro-4-fluorophenyl)amino]-6-[2-((R)-6-methyl-2-oxo-morpholin-4-yl)-ethoxy]-7-methoxy-quinazoline], the melting point is 208 °C. In the case of `C[C@@H]1CN(CCCOc2cc3c(Nc4ccc(F)c(Cl)c4)ncnc3cc2OC2CCC2)CC(=O)O1` [Example 3(6), 4-[(3-Chloro-4-fluorophenyl)amino]-6-[3-((R)-6-methyl-2-oxo-morpholin-4-yl)-propyloxy]-7-cyclobutyloxy-quinazoline], the melting point is 185.5 to 189.5 °C. `CC1(C)COC(=O)CN1CCCOc1cc2c(Nc3ccc(F)c(Cl)c3)ncnc2cc1OC1CCC1` [Example 3(7), 4-[(3-Chloro-4-fluorophenyl)amino]-6-[3-(5,5-dimethyl-2-oxo-morpholin-4-yl)-propyloxy]-7-cyclobutyloxy-quinazoline] returned a melting point of 214 to 216 °C. On to `C[C@@H]1CN(CCCOc2cc3c(Nc4ccc(F)c(Cl)c4)ncnc3cc2OCC2CC2)CC(=O)O1` [Example 3(8), 4-[(3-Chloro-4-fluorophenyl)amino]-6-[3-((R)-6-methyl-2-oxo-morpholin-4-yl)-propyloxy]-7-cyclopropylmethoxy-quinazoline], for which the melting point was in the range of 160.5 to 163 °C. For `C[C@H]1CN(CCCOc2cc3c(Nc4ccc(F)c(Cl)c4)ncnc3cc2OCC2CC2)CC(=O)O1` [Example 3(9), 4-[(3-Chloro-4-fluorophenyl)amino]-6-[3-((S)-6-methyl-2-oxo-morpholin-4-yl)-propyloxy]-7-cyclopropylmethoxy-quinazoline], the melting point was 160 to 162 °C.

For `C[C@@H]1CN(CCOc2cc3c(Nc4ccc(F)c(Cl)c4)ncnc3cc2OC2CCCC2)CC(=O)O1` [Example 3(11), 4-[(3-Chloro-4-fluorophenyl)amino]-6-[2-((R)-6-methyl-2-oxo-morpholin-4-yl)-ethoxy]-7-cyclopentyloxy-quinazoline], the melting point lay in the range of 176 to 178 °C. Same read-out and setting: for `COc1cc2ncnc(Nc3ccc(F)c(Cl)c3)c2cc1OCCCN1CC(=O)O[C@@H](C)C1` [Example 3(23), 4-[(3-Chloro-4-fluorophenyl)amino]-6-[3-((S)-6-methyl-2-oxo-morpholin-4-yl)-propyloxy]-7-methoxy-quinazoline] the value was 183 to 186 °C; for `COc1cc2ncnc(Nc3ccc(F)c(Cl)c3)c2cc1OCCN(CC(=O)O)C[C@H](C)O` [Example 3(26), 4-[(3-Chloro-4-fluorophenyl)amino]-6-{2-[N-(carboxymethyl)-N-((S)-2-hydroxy-propyl)-amino]-ethoxy}-7-methoxy-quinazoline], 187 to 190 °C; for `COc1cc2ncnc(Nc3ccc(F)c(Cl)c3)c2cc1OCCN1CC(=O)OC(C)(C)C1` [Example 3(27), 4-[(3-Chloro-4-fluorophenyl)amino]-6-[2-(6,6-dimethyl-2-oxo-morpholin-4-yl)-ethoxy]-7-methoxy-quinazoline], 229 to 232 °C. On the same count and under the same terms, then `CC1(C)CN(CCOc2cc3c(Nc4ccc(F)c(Cl)c4)ncnc3cc2O[C@@H]2CCOC2)CC(=O)O1` [Example 3(28), 4-[(3-chloro-4-fluorophenyl)amino]-6-[2-(6,6-dimethyl-2-oxo-morpholin-4-yl)-ethoxy]-7-((R)-tetrahydrofuran-3-yloxy)-quinazoline], with 195 to 196 °C. For `CC1(C)CN(CCOc2cc3c(Nc4ccc(F)c(Cl)c4)ncnc3cc2OC[C@H]2CCCO2)CC(=O)O1` [Example 3(29), 4-[(3-chloro-4-fluorophenyl)amino]-6-[2-(6,6-dimethyl-2-oxo-morpholin-4-yl)-ethoxy]-7-[(R)-(tetrahydrofuran-2-yl)methoxy]-quinazoline], the melting point is 184 °C. Compound `CC1(C)CN(CCOc2cc3ncnc(Nc4ccc(F)c(Cl)c4)c3cc2O[C@H]2CCOC2)CC(=O)O1` [Example 3(30), 4-[(3-chloro-4-fluorophenyl)amino]-7-[2-(6,6-dimethyl-2-oxo-morpholin-4-yl)-ethoxy]-6-((S)-tetrahydrofuran-3-yloxy)-quinazoline] registered a melting point of 202 to 205 °C. Still for that read-out and setting: for `CC1(C)CN(CCOc2cc3ncnc(Nc4ccc(F)c(Cl)c4)c3cc2OC[C@@H]2CCCO2)CC(=O)O1` [Example 3(31), 4-[(3-chloro-4-fluorophenyl)amino]-7-[2-(6,6-dimethyl-2-oxo-morpholin-4-yl)-ethoxy]-6-[(S)-(tetrahydrofuran-2-yl)methoxy]-quinazoline] the value was 182 °C.

The compound `COc1cc2ncnc(Nc3cccc(Br)c3)c2cc1OCCN1CC(=O)O[C@@H](C)C1` [Example 3, 4-[(3-Bromo-phenyl)amino]-6-[2-((S)-6-methyl-2-oxo-morpholin-4-yl)-ethoxy]-7-methoxy-quinazoline] displayed a melting point of 190 °C.

Compound `COc1cc2ncnc(Nc3cccc(Br)c3)c2cc1OCCN(CC(=O)OC(C)(C)C)C[C@@H](C)O` [Example 4(1), 4-[(3-Bromo-phenyl)amino]-6-(2-{N-[(tert.butyloxycarbonyl)methyl]-N-((R)-2-hydroxy-propyl)-amino}-ethoxy)-7-methoxy-quinazoline] displayed a melting point of 130 °C.

A further data set deals with T1, human EGF-R (Homo sapiens, UniProt P00533).
T1 construct: expressed in transfected cells; host or cells: F/L-HERc (murine IL-3-dependent FDC-P1 cells transduced with retroviral vector LXSN carrying the human EGF-R cDNA; packaging line GP+E86)
T1 sequence (P00533 25-1210): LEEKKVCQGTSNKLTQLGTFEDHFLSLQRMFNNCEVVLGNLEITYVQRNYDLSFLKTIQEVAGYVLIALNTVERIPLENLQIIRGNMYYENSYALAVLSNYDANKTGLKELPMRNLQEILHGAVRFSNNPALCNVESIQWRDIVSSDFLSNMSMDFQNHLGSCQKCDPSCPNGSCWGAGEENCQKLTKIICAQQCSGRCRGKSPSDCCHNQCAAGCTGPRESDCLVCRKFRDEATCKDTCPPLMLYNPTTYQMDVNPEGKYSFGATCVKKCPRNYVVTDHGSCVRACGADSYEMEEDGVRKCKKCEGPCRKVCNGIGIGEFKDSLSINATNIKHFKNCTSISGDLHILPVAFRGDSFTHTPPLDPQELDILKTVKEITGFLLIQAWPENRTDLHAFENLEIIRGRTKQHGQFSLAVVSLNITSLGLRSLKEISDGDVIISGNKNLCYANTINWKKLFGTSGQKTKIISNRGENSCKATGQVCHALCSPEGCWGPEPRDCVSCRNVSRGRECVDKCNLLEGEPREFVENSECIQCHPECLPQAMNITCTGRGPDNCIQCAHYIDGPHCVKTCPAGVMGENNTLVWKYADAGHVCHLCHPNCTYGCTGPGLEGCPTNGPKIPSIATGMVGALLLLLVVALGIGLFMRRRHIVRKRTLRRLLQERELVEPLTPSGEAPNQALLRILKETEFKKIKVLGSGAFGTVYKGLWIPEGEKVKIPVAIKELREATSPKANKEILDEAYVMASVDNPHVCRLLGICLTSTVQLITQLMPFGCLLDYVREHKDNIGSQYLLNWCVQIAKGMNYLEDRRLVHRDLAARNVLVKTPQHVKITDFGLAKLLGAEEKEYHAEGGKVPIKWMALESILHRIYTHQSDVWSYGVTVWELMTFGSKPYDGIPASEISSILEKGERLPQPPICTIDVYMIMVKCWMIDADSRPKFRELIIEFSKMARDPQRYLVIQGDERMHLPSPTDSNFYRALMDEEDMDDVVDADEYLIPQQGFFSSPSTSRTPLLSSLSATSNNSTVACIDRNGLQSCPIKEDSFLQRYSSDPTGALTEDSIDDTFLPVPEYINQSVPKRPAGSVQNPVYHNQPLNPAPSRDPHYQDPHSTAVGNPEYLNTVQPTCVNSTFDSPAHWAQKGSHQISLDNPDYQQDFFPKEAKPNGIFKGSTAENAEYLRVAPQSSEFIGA
The data set is described as follows: Inhibition of EGF-dependent proliferation of F/L-HERc cells. The format is cell-based. The conditions noted are these: F/L-HERc cells (murine IL-3-dependent line expressing human EGF-R), stimulated with EGF 20 ng/ml, 48 hours, Cell Titer 96 AQueous assay. The source says:
A cell line of murine origin dependent on interleukin-3-(IL-3) which was genetically modified to express functional human EGF-R was used here. The proliferation of these cells known as F/L-HERc can therefore be stimulated either by murine IL-3 or by EGF (cf. von Rüden, T. et al. in EMBO J. 7, 2749-2756 (1988) and Pierce, J. H. et al. in Science 239, 628-631 (1988)).
The starting material used for the F/L-HERc cells was the cell line FDC-P1, the production of which has been described by Dexter, T. M. et al. in J. Exp. Med. 152, 1036-1047 (1980). Alternatively, however, other growth-factor-dependent cells may also be used (cf. for example Pierce, J. H. et al. in Science 239, 628-631 (1988), Shibuya, H. et al. in Cell 70, 57-67 (1992) and Alexander, W. S. et al. in EMBO J. 10, 3683-3691 (1991)). For expressing the human EGF-R cDNA (cf. Ullrich, A. et al. in Nature 309, 418-425 (1984)) recombinant retroviruses were used as described by von Rüden, T. et al., EMBO J. 7, 2749-2756 (1988), except that the retroviral vector LXSN (cf. Miller, A. D. et al. in BioTechniques 7, 980-990 (1989)) was used for the expression of the EGF-R cDNA and the line GP+E86 (cf. Markowitz, D. et al. in J. Virol. 62, 1120-1124 (1988)) was used as the packaging cell.
The test was performed as follows:
F/L-HERc cells were cultivated in RPMI/1640 medium (BioWhittaker), supplemented with 10% foetal calf serum (FCS, Boehringer Mannheim), 2 mM glutamine (BioWhittaker), standard antibiotics and 20 ng/ml of human EGF (Promega), at 37° C. and 5% CO2. In order to investigate the inhibitory activity of the compounds according to the invention, 1.5×10^4 cells per well were cultivated in triplicate in 96-well dishes in the above medium (200 μl), the cell proliferation being stimulated with either EGF (20 ng/ml) or murine IL-3. The IL-3 used was obtained from culture supernatants of the cell line X63/0 mIL-3 (cf. Karasuyama, H. et al. in Eur. J. Immunol. 18, 97-104 (1988)). The compounds according to the invention were dissolved in 100% dimethylsulphoxide (DMSO) and added to the cultures in various dilutions, the maximum DMSO concentration being 1%. The cultures were incubated for 48 hours at 37° C.
In order to determine the inhibitory activity of the compounds according to the invention the relative cell number was measured in O.D. units using the Cell Titer 96™ AQueous Non-Radioactive Cell Proliferation Assay (Promega). The relative cell number was calculated as a percentage of the control (F/LHERc cells without inhibitor) and the concentration of active substance which inhibits the proliferation of the cells by 50% (IC50) was derived therefrom.
For orientation: IC50 means the concentration at which inhibition is half-maximal. Low readings indicate inhibition by little substance, high ones a need for much substance. On to `CC1(C)CN(CCOc2cc3ncnc(Nc4ccc(F)c(Cl)c4)c3cc2OCC2CC2)CC(=O)O1` [1(1), 4-[(3-Chloro-4-fluorophenyl)amino]-6-cyclopropylmethoxy-7-[2-(6,6-dimethyl-2-oxo-morpholin-4-yl)-ethoxy]-quinazoline], for which the IC50 was 29 nM. Take `CC1(C)CN(CCCOc2cc3c(Nc4ccc(F)c(Cl)c4)ncnc3cc2OC2CCC2)CC(=O)O1` [1(2), 4-[(3-Chloro-4-fluorophenyl)amino]-7-cyclobutyloxy-6-[3-(6,6-dimethyl-2-oxo-morpholin-4-yl)-propyloxy]-quinazoline]: half-maximal inhibition (IC50) was put at 29 nM. For `CN(CCOc1cc2ncnc(Nc3ccc(F)c(Cl)c3)c2cc1OC1CCCC1)C1COC(=O)C1` (centres unmarked) [2(1), 4-[(3-Chloro-4-fluorophenyl)amino]-6-cyclopentyloxy-7-{2-[N-(2-oxo-tetrahydrofuran-4-yl)-N-methyl-amino]-ethoxy}-quinazoline], the half-inhibitory concentration (IC50) was found to be 36 nM. The compound `CC1(C)CN(CCOc2cc3ncnc(Nc4ccc(F)c(Cl)c4)c3cc2OCC2CCCC2)CC(=O)O1` [Example 1, 4-[(3-Chloro-4-fluorophenyl)amino]-6-cyclopentylmethoxy-7-[2-(6,6-dimethyl-2-oxo-morpholin-4-yl)-ethoxy]-quinazoline] yielded an IC50 of 59 nM.

The record behind these values is US6656946B2, “Aminoquinazolines which inhibit signal transduction mediated by tyrosine kinases” (Boehringer Ingelheim Pharma KG, priority 2000, dated 2003).
